# Measurements: patent US20160214972A1, “COMPOUNDS AND METHODS FOR THE TARGETED DEGRADATION OF ANDROGEN RECEPTOR” (Arvinas, Inc., priority 2015, published 2016)
# Entries after “also recorded” stand apart in the source; their conditions may differ.
# What was measured:
# [1] = system: LNCaP cells transduced with AR F876L construct; assay: Anti-proliferation in LNCaP F876L (CellTiterGlo); assay type: cell-based; conditions: Charcoal Stripped Serum media, 7 days
# Procedure: FIG. 3. Anti-proliferation in LNCaP F876L. […] LNCaP cells transduced with AR F876L construct were cultured in Charcoal Stripped Serum containing media.
# LNCaP cells transduced with AR F876L construct were cultured in Charcoal Stripped Serum containing media. […] CellTiterGlo reagent (Promega) was employed to assess proliferation.
# AR = molecular target: T1, AR (Homo sapiens, UniProt P10275+P40337, T878A); assay: AR degradation of PROTAC is E3 ligase dependent (LNCaP cells); assay type: cell-based; conditions: 24 hours
# T1 construct: endogenous in cells; host or cells: LNCaP cells
# Text: FIG. 7A and FIG. 7B. AR degradation of PROTAC is E3 ligase dependent.
# Androgen Receptor = Androgen Receptor ELISA assay (PathScan AR ELISA) in LNCaP and/or VCaP cells; assay type: cell-based; conditions: highest percentage of Androgen Receptor degradation observed
# prostate = assay: Prostate involution in C57B6 mouse model; assay type: in vivo; conditions: 12-week old male C57BL/6 mice; IP, QD, 1 and 3 mpk for 10 days
# Text: FIG. 5. Prostate involution in C57B6 mouse model.
# VCaP xenograft = assay: Tumor growth inhibition in VCaP xenograft model; assay type: in vivo; conditions: castrated CB17 scid mice with VCaP tumors; enzalutamide PO, QD, 30 mpk; Example 163 IP, QD, 30, 10 and 3 mpk
# Text: FIG. 6. Tumor growth inhibition in VCaP xenograft model. VCaP cells were implanted into CB17 scid mice subcutaneously. Once the tumors were palpable, the mice were castrated, leading to temporary tumor stasis.
# VCaP cells were implanted into CB17 scid mice subcutaneously. Once the tumors were palpable, the mice were castrated, leading to temporary tumor stasis.
# T1 sequence (P10275 whole entry T878A): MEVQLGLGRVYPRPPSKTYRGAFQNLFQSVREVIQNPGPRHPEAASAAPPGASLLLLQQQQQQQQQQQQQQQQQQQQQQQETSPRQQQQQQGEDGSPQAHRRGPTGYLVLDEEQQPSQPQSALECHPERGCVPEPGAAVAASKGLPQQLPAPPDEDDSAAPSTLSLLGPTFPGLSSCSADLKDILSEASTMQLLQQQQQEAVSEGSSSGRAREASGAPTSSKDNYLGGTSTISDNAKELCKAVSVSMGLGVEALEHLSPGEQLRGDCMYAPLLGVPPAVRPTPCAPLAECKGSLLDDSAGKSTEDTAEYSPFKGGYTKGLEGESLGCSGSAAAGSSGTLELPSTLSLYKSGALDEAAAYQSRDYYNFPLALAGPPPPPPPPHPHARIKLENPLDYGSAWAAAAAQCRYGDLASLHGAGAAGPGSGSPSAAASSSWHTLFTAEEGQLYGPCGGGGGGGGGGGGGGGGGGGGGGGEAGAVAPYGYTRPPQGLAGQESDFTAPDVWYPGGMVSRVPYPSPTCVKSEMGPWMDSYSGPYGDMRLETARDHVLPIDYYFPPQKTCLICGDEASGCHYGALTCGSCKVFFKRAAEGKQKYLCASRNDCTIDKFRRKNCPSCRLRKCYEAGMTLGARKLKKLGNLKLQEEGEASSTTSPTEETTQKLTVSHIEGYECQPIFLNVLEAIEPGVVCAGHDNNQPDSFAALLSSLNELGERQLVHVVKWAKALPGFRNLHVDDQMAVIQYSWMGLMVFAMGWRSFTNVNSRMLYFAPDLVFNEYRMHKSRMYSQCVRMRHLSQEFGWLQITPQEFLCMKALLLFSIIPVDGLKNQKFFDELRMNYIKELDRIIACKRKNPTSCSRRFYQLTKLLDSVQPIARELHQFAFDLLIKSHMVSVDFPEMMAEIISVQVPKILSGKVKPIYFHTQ
# T1 sequence (P40337 whole entry): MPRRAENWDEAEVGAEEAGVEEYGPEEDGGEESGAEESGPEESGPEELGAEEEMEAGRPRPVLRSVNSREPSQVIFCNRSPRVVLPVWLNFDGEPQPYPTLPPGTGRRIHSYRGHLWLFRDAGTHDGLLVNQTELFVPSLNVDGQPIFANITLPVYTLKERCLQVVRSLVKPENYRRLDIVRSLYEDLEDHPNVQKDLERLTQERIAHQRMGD
# T1 sequence (Q15369 whole entry partner): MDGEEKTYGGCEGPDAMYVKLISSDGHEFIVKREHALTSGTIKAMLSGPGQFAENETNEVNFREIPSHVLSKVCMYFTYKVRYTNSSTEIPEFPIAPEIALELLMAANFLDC
# T1 sequence (Q15370 whole entry partner): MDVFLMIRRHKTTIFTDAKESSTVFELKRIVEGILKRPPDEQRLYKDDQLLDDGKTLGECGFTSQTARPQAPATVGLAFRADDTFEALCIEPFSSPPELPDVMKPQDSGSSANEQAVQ
# T1 sequence (Q13617 whole entry partner): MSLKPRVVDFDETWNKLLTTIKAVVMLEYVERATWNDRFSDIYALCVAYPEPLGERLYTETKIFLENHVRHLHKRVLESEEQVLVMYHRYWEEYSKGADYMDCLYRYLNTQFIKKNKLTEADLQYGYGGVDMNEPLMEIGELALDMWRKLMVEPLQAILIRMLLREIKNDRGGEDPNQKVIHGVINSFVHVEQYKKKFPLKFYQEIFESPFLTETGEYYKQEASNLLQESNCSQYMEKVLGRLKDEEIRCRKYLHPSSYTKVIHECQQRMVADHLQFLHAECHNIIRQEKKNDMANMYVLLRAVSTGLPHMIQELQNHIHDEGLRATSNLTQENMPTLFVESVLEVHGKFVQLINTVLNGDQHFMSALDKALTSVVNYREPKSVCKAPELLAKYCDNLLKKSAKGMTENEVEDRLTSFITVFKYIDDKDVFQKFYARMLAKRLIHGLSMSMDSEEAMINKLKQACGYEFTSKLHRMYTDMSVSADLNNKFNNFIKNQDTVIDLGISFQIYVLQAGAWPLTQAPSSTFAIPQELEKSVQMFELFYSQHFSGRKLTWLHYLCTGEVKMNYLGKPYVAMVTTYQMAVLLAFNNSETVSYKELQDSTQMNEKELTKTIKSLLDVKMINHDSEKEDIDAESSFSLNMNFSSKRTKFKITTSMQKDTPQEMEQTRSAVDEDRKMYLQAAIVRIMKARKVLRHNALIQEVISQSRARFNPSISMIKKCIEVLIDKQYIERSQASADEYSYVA
# T1 sequence (P62877 whole entry partner): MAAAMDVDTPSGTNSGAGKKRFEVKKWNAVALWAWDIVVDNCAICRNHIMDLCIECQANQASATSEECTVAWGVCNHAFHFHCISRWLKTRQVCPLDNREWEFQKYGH
smiles,measurement,setting,value
"Cc1ncsc1-c1ccc(CNC(=O)[C@@H]2C[C@@H](O)CN2C(=O)[C@@H](NC(=O)COCCCOCCCCCOc2ccc(N3C(=S)N(c4ccc(C#N)c(C(F)(F)F)c4)C(=O)C3(C)C)cc2)C(C)(C)C)cc1 [Example 1, (2S,4R)-1-((S)-2-(2-(3-(5-(4-(3-(4-cyano-3-(trifluoromethyl)phenyl)-5,5-dimethyl-4-oxo-2-thioxoimidazolidin-1-yl)phenoxy)pentyloxy)propoxy)acetamido)-3,3-dimethylbutanoyl)-4-hydroxy-N-(4-(4-methylthiazol-5-yl)benzyl)pyrrolidine-2-carboxamide]",proliferation of LNCaP F876L cells (agonist activity),[1],did not exhibit agonist activity; also recorded: Anti-proliferation in LNCaP F876L cells observed
same,AR degradation in LNCaP cells,AR,significant degradation of AR
same,AR degradation in LNCaP cells in the presence of VHL E3 ligase ligand compound B,AR; 10 uM compound B,greatly diminishes the AR degradation activity
"Cc1ncsc1-c1ccc(CNC(=O)[C@@H]2C[C@@H](O)CN2C(=O)[C@@H](NC(=O)COCCOCCOc2ccc(-c3ccc(N4C(=S)N(c5ccc(C#N)c(C(F)(F)F)c5)C(=O)C4(C)C)cc3)cc2)C(C)(C)C)cc1 [Example 67, (2S,4R)-1-((S)-2-(2-(2-(2-(4′-(3-(4-cyano-3-(trifluoromethyl)phenyl)-5,5-dimethyl-4-oxo-2-thioxoimidazolidin-1-yl)biphenyl-4-yloxy)ethoxy)ethoxy)acetamido)-3,3-dimethylbutanoyl)-4-hydroxy-N-(4-(4-methylthiazol-5-yl)benzyl)pyrrolidine-2-carboxamide]",LNCaP Dmax (%),Androgen Receptor,72.1%
"Cc1ncsc1-c1ccc(CNC(=O)[C@@H]2C[C@@H](O)CN2C(=O)[C@@H](NC(=O)COCCCCOc2ccc(C(=O)N[C@H]3C(C)(C)[C@H](Oc4ccc(C#N)c(Cl)c4)C3(C)C)cc2)C(C)(C)C)cc1 [Example 163, (2S,4R)-1-[(2S)-3,3-dimethyl-2-{2-[4-(4-{[trans-3-(3-chloro-4-cyanophenoxy)-2,2,4,4-tetramethylcyclobutyl]carbamoyl}phenoxy)butoxy]acetamido}butanoyl]-4-hydroxy-N-{[4-(4-methyl-1,3-thiazol-5-yl)phenyl]methyl}pyrrolidine-2-carboxamide]",prostate weights (prostate involution),prostate,significant reduction in prostate weights; also recorded: significant prostate involution in mice at very low doses
same,tumor growth inhibition,VCaP xenograft,Tumor growth inhibition was observed in all treatment arms
"CNC(=O)c1ccc(N2C(=S)N(c3ccc(C#N)c(C(F)(F)F)c3)C(=O)C2(C)C)cc1F [enzalutamide, reference compound]",tumor growth inhibition,VCaP xenograft,Tumor growth inhibition was observed in all treatment arms
